Laboratory results taken from PubChem BioAssay (NCI).
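Dose response: 5 concentrations. Exposure: 48 h. Format: 96-well plates. Endpoint: linear interpolation; highest concentration if not reached. GI50: concentration for 50% inhibition of growth. At the TGI there is no net growth.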

How the values were obtained:
Experiment in all cases: NCI-60 cell line screen, 48 h
SR leukemia = tested on: SR leukemia
MCF7 breast = tested on: MCF7 breast
HOP-62 NSCLC = tested on: HOP-62 NSCLC
HCT-15 colon = tested on: HCT-15 colon
A498 renal = tested on: A498 renal
HCT-116 colon = tested on: HCT-116 colon
SK-MEL-28 melanoma = tested on: SK-MEL-28 melanoma
NCI-H226 lung = tested on: NCI-H226 lung
UACC-62 melanoma = tested on: UACC-62 melanoma
MALME-3M melanoma = tested on: MALME-3M melanoma
KM12 colon = tested on: KM12 colon
NCI-H460 lung = tested on: NCI-H460 lung
MDA-MB-231 breast = tested on: MDA-MB-231 breast
SK-MEL-2 melanoma = tested on: SK-MEL-2 melanoma
T-47D breast = tested on: T-47D breast
DU-145 prostate = tested on: DU-145 prostate
SN12C renal = tested on: SN12C renal
MOLT-4 leukemia = tested on: MOLT-4 leukemia
IGROV1 ovarian = tested on: IGROV1 ovarian
SF-539 CNS = tested on: SF-539 CNS
MDA-MB-435 = tested on: MDA-MB-435
COLO 205 colon = tested on: COLO 205 colon
SK-MEL-5 melanoma = tested on: SK-MEL-5 melanoma
U251 CNS = tested on: U251 CNS
SF-295 CNS = tested on: SF-295 CNS
HOP-92 NSCLC = tested on: HOP-92 NSCLC
NCI-H522 lung = tested on: NCI-H522 lung
NCI-H23 lung = tested on: NCI-H23 lung
SK-OV-3 ovarian = tested on: SK-OV-3 ovarian
OVCAR-8 ovarian = tested on: OVCAR-8 ovarian
SW-620 colon = tested on: SW-620 colon
OVCAR-3 ovarian = tested on: OVCAR-3 ovarian
SF-268 CNS = tested on: SF-268 CNS
M14 melanoma = tested on: M14 melanoma
RXF 393 renal = tested on: RXF 393 renal
HL-60(TB) leukemia = tested on: HL-60(TB) leukemia
A549 NSCLC = tested on: A549 NSCLC
OVCAR-4 ovarian = tested on: OVCAR-4 ovarian
SNB-19 CNS = tested on: SNB-19 CNS
LOX IMVI melanoma = tested on: LOX IMVI melanoma
EKVX NSCLC = tested on: EKVX NSCLC
UACC-257 melanoma = tested on: UACC-257 melanoma
TK-10 renal = tested on: TK-10 renal
OVCAR-5 ovarian = tested on: OVCAR-5 ovarian
CAKI-1 renal = tested on: CAKI-1 renal
SNB-75 CNS = tested on: SNB-75 CNS
ACHN renal = tested on: ACHN renal
HS 578T breast = tested on: HS 578T breast
BT-549 breast = tested on: BT-549 breast
HT29 colon = tested on: HT29 colon
PC-3 prostate = tested on: PC-3 prostate
NCI/ADR-RES ovarian = tested on: NCI/ADR-RES ovarian

SMILES: COc1ccc2c(c1)CCC1C2CCC2(C)C1CC[C@@]2(O)CNC(=O)/C=C/c1ccc(O)c(O)c1 (some centres undefined)
- GI50 (SR leukemia): 20.1 µM
- TGI (SR leukemia): 59.7 µM
- GI50 (MCF7 breast): 3.66 µM
- TGI (MCF7 breast): > 100 µM
- GI50 (HOP-62 NSCLC): 5.59 µM
- TGI (HOP-62 NSCLC): 79.1 µM
- GI50 (HCT-15 colon): 1.49 µM
- TGI (HCT-15 colon): 4.99 µM
- GI50 (A498 renal): 18.8 µM
- TGI (A498 renal): 39.8 µM
- GI50 (HCT-116 colon): 2.95 µM
- TGI (HCT-116 colon): 19.2 µM
- GI50 (SK-MEL-28 melanoma): 4.33 µM
- TGI (SK-MEL-28 melanoma): 31.8 µM
- GI50 (NCI-H226 lung): 9.76 µM
- TGI (NCI-H226 lung): 35.3 µM
- GI50 (UACC-62 melanoma): 2.24 µM
- TGI (UACC-62 melanoma): 5.63 µM
- GI50 (MALME-3M melanoma): 3.56 µM
- TGI (MALME-3M melanoma): 9.6 µM
- GI50 (KM12 colon): 2.44 µM
- TGI (KM12 colon): 7.82 µM
- GI50 (NCI-H460 lung): 2.69 µM
- TGI (NCI-H460 lung): > 100 µM
- GI50 (MDA-MB-231 breast): 2.43 µM
- TGI (MDA-MB-231 breast): 10 µM
- GI50 (SK-MEL-2 melanoma): 5.59 µM
- TGI (SK-MEL-2 melanoma): 29.7 µM
- GI50 (T-47D breast): 3.15 µM
- TGI (T-47D breast): > 100 µM
- GI50 (DU-145 prostate): 3.11 µM
- TGI (DU-145 prostate): > 100 µM
- GI50 (SN12C renal): 2.57 µM
- TGI (SN12C renal): 8.84 µM
- GI50 (MOLT-4 leukemia): 0.382 µM
- TGI (MOLT-4 leukemia): 2.28 µM
- GI50 (IGROV1 ovarian): 0.937 µM
- TGI (IGROV1 ovarian): 3.37 µM
- GI50 (SF-539 CNS): 2.08 µM
- TGI (SF-539 CNS): 6.75 µM
- GI50 (MDA-MB-435): 2.86 µM
- TGI (MDA-MB-435): 19.2 µM
- GI50 (COLO 205 colon): 1.81 µM
- TGI (COLO 205 colon): 5.75 µM
- GI50 (SK-MEL-5 melanoma): 3.41 µM
- TGI (SK-MEL-5 melanoma): 9.6 µM
- GI50 (U251 CNS): 1.65 µM
- TGI (U251 CNS): 4.41 µM
- GI50 (SF-295 CNS): 3.54 µM
- TGI (SF-295 CNS): > 100 µM
- GI50 (HOP-92 NSCLC): 2.23 µM
- TGI (HOP-92 NSCLC): 14.7 µM
- GI50 (NCI-H522 lung): 0.503 µM
- TGI (NCI-H522 lung): 2.19 µM
- GI50 (NCI-H23 lung): 2.96 µM
- TGI (NCI-H23 lung): 9.14 µM
- GI50 (SK-OV-3 ovarian): 14.8 µM
- TGI (SK-OV-3 ovarian): > 100 µM
- GI50 (OVCAR-8 ovarian): 4.13 µM
- TGI (OVCAR-8 ovarian): > 100 µM
- GI50 (SW-620 colon): 4.07 µM
- TGI (SW-620 colon): > 100 µM
- GI50 (OVCAR-3 ovarian): 2.56 µM
- TGI (OVCAR-3 ovarian): 67.3 µM
- GI50 (SF-268 CNS): 2.97 µM
- TGI (SF-268 CNS): > 100 µM
- GI50 (M14 melanoma): 2.59 µM
- TGI (M14 melanoma): 7.42 µM
- GI50 (RXF 393 renal): 3.98 µM
- TGI (RXF 393 renal): 16.7 µM
- GI50 (HL-60(TB) leukemia): 0.595 µM
- TGI (HL-60(TB) leukemia): 3.97 µM
- GI50 (A549 NSCLC): 3.95 µM
- TGI (A549 NSCLC): 29.3 µM
- GI50 (OVCAR-4 ovarian): 3.02 µM
- TGI (OVCAR-4 ovarian): > 100 µM
- GI50 (SNB-19 CNS): 3.31 µM
- TGI (SNB-19 CNS): > 100 µM
- GI50 (LOX IMVI melanoma): 1.58 µM
- TGI (LOX IMVI melanoma): 5.57 µM
- GI50 (EKVX NSCLC): 4.01 µM
- TGI (EKVX NSCLC): > 100 µM
- GI50 (UACC-257 melanoma): 18.5 µM
- TGI (UACC-257 melanoma): 35.7 µM
- GI50 (TK-10 renal): 2.52 µM
- TGI (TK-10 renal): 9.81 µM
- GI50 (OVCAR-5 ovarian): 16.5 µM
- TGI (OVCAR-5 ovarian): > 100 µM
- GI50 (CAKI-1 renal): 2.68 µM
- TGI (CAKI-1 renal): > 100 µM
- GI50 (SNB-75 CNS): 2.65 µM
- TGI (SNB-75 CNS): 7.18 µM
- GI50 (ACHN renal): 2.19 µM
- TGI (ACHN renal): 7.16 µM
- GI50 (HS 578T breast): 7.62 µM
- TGI (HS 578T breast): > 100 µM
- GI50 (BT-549 breast): 3.95 µM
- TGI (BT-549 breast): > 100 µM
- GI50 (HT29 colon): 1.93 µM
- TGI (HT29 colon): 4.78 µM
- GI50 (PC-3 prostate): 1.92 µM
- TGI (PC-3 prostate): 10.2 µM
- GI50 (NCI/ADR-RES ovarian): 2.12 µM
- TGI (NCI/ADR-RES ovarian): 5.83 µM
